Structures can show the parent of a compound that is named as a salt.
Experiments:
[1] = tested on: male Swiss mice; experiment: anti-ulcer action, cold stress by immersion in water and contention stress (method of C. J. Pfeiffer); type: in vivo, mouse (Swiss); settings: controls = 100
Description: The test was carried out on male Swiss mice with an average body weight of 23 g. subjected to cold stress by immersion in water and to a contention stress according to the method of C. J. Pfeiffer ("Peptic ulcer", Munksgaard, 1971, page 84). Three dosage levels of 25, 50 and 100 mg/kg and 15 animals for each dosage level were used.
The anti-ulcer action of the compounds was evaluated by calculating the percentage average inhibition, which indicates the inhibition of the ulcer seriousness index in the treated animals, taking 100 as the seriousness index of the controls.

[2] = LD50 in mice per os (acute toxicity); settings: mouse, in vivo, po
[3] = tested on: male Wistar rats; experiment: anti-diuretic action, urinary sodium and potassium (method of F. M. Sullivan); type: in vivo, rat (Wistar); settings: for Na+/K+ ratio (urine): gastric probe, urine of five hours after treatment; for % inhibition of the ratio Na+/K+: ratio in controls = 100
Description: The urine produced in the five hours after treatment are collected and the potassium and sodium contents are determined. The tests were carried out at two dosage levels, 30 and 60 mg/kg, using, for each dosage level, 8 pairs of animals.

Row | Compound | % average inhibition (of the ulcer seriousness index) ([1]; 25 mg/kg os) | % average inhibition (of the ulcer seriousness index) ([1]; 50 mg/kg os) | % average inhibition (of the ulcer seriousness index) ([1]; 100 mg/kg os) | LD50 [2] | Na+/K+ ratio (urine) ([3]; 30 mg/kg) | % inhibition of the ratio Na+/K+ ([3]; 30 mg/kg) | Na+/K+ ratio (urine) ([3]; 60 mg/kg) | % inhibition of the ratio Na+/K+ ([3]; 60 mg/kg)
1 | CC1(C)[C@@H](OC(=O)CCC(=O)O)CC[C@]2(C)C3=CCC4[C@@H]5C[C@@](C)(C(=O)O)CC[C@]5(C)CC[C@@]4(C)[C@]3(C)CC[C@@H]12 (stereo partly drawn) [Disodium salt of 3β-(3-carboxypropionoxy)-18β-olean-9-en-30-oic acid] | 13% | 22.5% | 70.5% | 1000 mg/kg | 3.18 | 0% | 3.59 | -3%
2 | CC1(C)[C@@H](OC(=O)CCC(=O)O)CC[C@]2(C)[C@H]3C(=O)C=C4[C@@H]5C[C@@](C)(C(=O)O)CC[C@]5(C)CC[C@@]4(C)[C@]3(C)CC[C@@H]12 [carbenoxolone, disodium salt of glycycrrhetinic acid 3-hemisuccinate] | 29.5% | 29% | 63.5% | 700 mg/kg | 1.81 | 43% | 1.24 | 64%
